Measurements published in ChEMBL document CHEMBL1156128, “Nitric oxide-donating carbonic anhydrase inhibitors for the treatment of open-angle glaucoma” (Bioorg Med Chem Lett, 2009).
Values after ≈ are worked out from the molar mass of the structure shown.

Experiments:
[1] = physchem; conditions: buffer, pH 6
[2] = species on record: Oryctolagus cuniculus; experiment: tissue or blood; conditions: Aorta
Description: Vasorelaxant activity against methoxiamin-induced contraction in rabbit aortic ring

[3] = biological target: Carbonic anhydrase 1 (Homo sapiens, UniProt P00915); experiment: Inhibition of human carbonic anhydrase 1 up to 100 uM by CO2 hydrase stopped flow assay
[4] = biological target: Carbonic anhydrase 2 (Homo sapiens, UniProt P00918); experiment: Inhibition of human carbonic anhydrase 2 up to 100 uM by CO2 hydrase stopped flow assay
[5] = biological target: Carbonic anhydrase 4 (Homo sapiens, UniProt P22748); experiment: Inhibition of human carbonic anhydrase 4 up to 100 uM by CO2 hydrase stopped flow assay
Sequence of Carbonic anhydrase 4 (P22748 whole entry): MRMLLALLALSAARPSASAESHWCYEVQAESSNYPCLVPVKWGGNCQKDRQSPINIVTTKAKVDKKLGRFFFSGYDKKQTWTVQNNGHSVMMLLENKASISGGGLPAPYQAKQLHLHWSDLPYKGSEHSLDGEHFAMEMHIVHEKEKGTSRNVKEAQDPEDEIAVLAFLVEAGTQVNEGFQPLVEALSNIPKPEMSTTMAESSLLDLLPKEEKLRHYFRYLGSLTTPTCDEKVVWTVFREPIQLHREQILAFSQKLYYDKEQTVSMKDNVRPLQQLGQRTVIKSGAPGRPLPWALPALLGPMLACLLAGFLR

Sequence of Carbonic anhydrase 1 (P00915 whole entry): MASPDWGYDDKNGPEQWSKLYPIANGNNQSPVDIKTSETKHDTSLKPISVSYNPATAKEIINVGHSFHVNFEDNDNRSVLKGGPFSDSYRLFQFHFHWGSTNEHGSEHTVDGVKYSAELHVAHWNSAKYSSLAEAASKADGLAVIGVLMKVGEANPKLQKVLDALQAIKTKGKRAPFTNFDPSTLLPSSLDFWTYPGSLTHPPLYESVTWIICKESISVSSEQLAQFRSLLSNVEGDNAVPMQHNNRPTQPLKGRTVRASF

solubility [1] | SMILES | EC50 [2] | Ki [3] | Ki [4] | Ki [5]
0.25 mg/mL (≈ 0.517 mM) | CCN(C(=O)CCCCCO[N+](=O)[O-])[C@H]1C[C@H](C)S(=O)(=O)c2sc(S(N)(=O)=O)cc21 | 4.25 µM |  |  | 
 | CCN(C(=O)OCC(CO[N+](=O)[O-])O[N+](=O)[O-])[C@H]1C[C@H](C)S(=O)(=O)c2sc(S(N)(=O)=O)cc21 (stereo not given in full) | 0.37 µM |  |  | 
15.1 mg/mL (≈ 32 mM) | CCN(C(=O)OCCCO[N+](=O)[O-])[C@H]1C[C@H](C)S(=O)(=O)c2sc(S(N)(=O)=O)cc21 | 2.05 µM |  |  | 

SMILES | solubility [1] | EC50 [2] | Ki [3] | Ki [4] | Ki [5]
O=[N+]([O-])O[C@@H]1CO[C@H]2[C@@H]1OC[C@@H]2O [ISOSORBIDE MONONITRATE] | < 20 mg/mL | 10.8 µM | Not Active | Not Active | Not Active
